Measured values taken from PubChem BioAssay (NCI).
“And” between values parts separate entries of the source, which are not always exact repeats. Identical values can stand only once.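 The compound was tested at five concentrations on cells cultured in 96-well plates, with a 48-hour exposure period. GI50: concentration for 50% inhibition of growth. TGI marks complete inhibition of growth.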

What was measured:
Assay in all cases: growth of human tumour cells (NCI), 48 h
NCI-H460 lung = tested on: NCI-H460 lung
DU-145 prostate = tested on: DU-145 prostate
CAKI-1 renal = tested on: CAKI-1 renal
NCI-H226 lung = tested on: NCI-H226 lung
HOP-62 NSCLC = tested on: HOP-62 NSCLC
NCI-H522 lung = tested on: NCI-H522 lung
HT29 colon = tested on: HT29 colon
SK-MEL-2 melanoma = tested on: SK-MEL-2 melanoma
SNB-75 CNS = tested on: SNB-75 CNS
SK-OV-3 ovarian = tested on: SK-OV-3 ovarian

Compound | GI50 (NCI-H460 lung) | TGI (NCI-H460 lung) | GI50 (DU-145 prostate) | TGI (DU-145 prostate) | GI50 (CAKI-1 renal) [µM] | TGI (CAKI-1 renal) [µM] | GI50 (NCI-H226 lung) [µM] | TGI (NCI-H226 lung) [µM] | GI50 (HOP-62 NSCLC) | TGI (HOP-62 NSCLC) [µM] | GI50 (NCI-H522 lung) [µM] | TGI (NCI-H522 lung) [µM] | TGI (HT29 colon) | TGI (SK-MEL-2 melanoma) [µM] | TGI (SNB-75 CNS) | TGI (SK-OV-3 ovarian) | GI50 (HT29 colon) | GI50 (SK-MEL-2 melanoma) [µM] | GI50 (SNB-75 CNS) | GI50 (SK-OV-3 ovarian)
COC(C(=O)[C@@H](O)[C@@H](C)O)[C@@H]1Cc2cc3cc(O[C@H]4C[C@@H](O[C@H]5C[C@@H](O)[C@H](O)C(C)O5)[C@H](O)C(C)O4)c(C)c(O)c3c(O)c2C(=O)[C@H]1O[C@H]1C[C@@H](O[C@H]2C[C@@H](O[C@H]3C[C@@H](O)[C@H](OC)C(C)O3)[C@@H](O)C(C)O2)[C@H](O)C(C)O1 (stereo partly specified) | 0.0132 µM | > 33.3 µM | 0.0188 µM | > 33.3 µM | 0.601 | > 33.3 | 0.0209 | > 33.3 | 0.0151 µM | 0.717 | 0.0101 | 0.0569 | 0.131 µM | 0.0392 | 0.23 µM | > 33.3 µM |  |  |  | 
O=C(CSC(c1ccccc1)c1ccccc1)N/N=C/c1ccco1 | 2.16 µM | 12.8 µM | 2.69 µM | > 4.92 µM | 4.7 | 23.2 | 3 | 17.1 | 1.84 µM | 3.84 | 1.4 | 4.49 | 48.3 µM | 3.76 | 58.1 µM | > 73 µM | 18.7 µM | 1.4 | 17.1 µM | 28.3 µM
CCCCCCCCCCCCOC1C(C(CC(=O)NCCN2CCCC2)NS(=O)(=O)c2cc(Cl)cc(Cl)c2)OC2OC(C)(C)OC21 (stereo unspecified) | 1.86 µM and 1.89 µM | 3.68 µM and 3.73 µM | 1.86 µM and 1.79 µM | 3.45 µM and 3.23 µM | 1.79 | 3.4 | 1.86 | 4.04 | 1.74 µM | 3.39 | 2.11 | 3.98 | 3.45 µM and 2.85 µM | 4.95 | 3.56 µM and 2.86 µM | 3.79 µM and 2.73 µM | 1.76 µM and 1.31 µM | 2.63 | 1.9 µM and 1.42 µM | 2.08 µM and 1.32 µM
Nc1nc(N)c2cc(CNc3ccc(C(=O)NC(CC(=O)O)C(=O)O)c(Cl)c3)ccc2n1 (stereo unspecified) | 0.05 µM | 72.6 µM |  | > 500 µM | 0.05 | > 500 | > 500 | > 500 | 0.308 µM and 0.05 µM | > 500 | 342 | > 500 | > 500 µM | > 500 | > 500 µM | > 500 µM | 0.05 µM | > 500 | 71.7 µM | 74.7 µM
COc1ccc2c(Oc3ccc(NC(=O)c4c(C)n(CC(C)(C)O)n(-c5ccccc5)c4=O)nc3)ccnc2c1 | 13.6 µM | > 100 µM | 12.1 µM | > 100 µM | 3.33 | > 27.7 | 16.2 | > 78 | 27.8 µM | > 100 | 6.84 | 26.7 | > 91.1 µM | 49.4 | 71.1 µM | > 80.8 µM | 21.6 µM | 13.3 | 5.53 µM | 6.06 µM
CCN(CC)c1cc2oc3cc(N)cc(=N)c-3nc2cc1C | 3.41 µM | 17 µM | 2.2 µM | 4.92 µM | 1.65 | 6.78 | 3.39 | 42.8 | 2.91 µM | 9.26 | 2.31 | 6.05 | 15.6 µM | 4.69 | 13.4 µM | > 100 µM | 3.49 µM | 2.01 | 2.84 µM | 22.2 µM
CC1C(=O)OC2CC[N+]3([O-])CC=C(COC(=O)C(C)(O)C1(C)O)C23 (stereo unspecified) |  | > 100 µM |  | > 100 µM |  | > 100 |  | > 100 |  | > 100 |  | > 100 | > 100 µM | > 100 | > 100 µM | > 100 µM |  |  |  | 
CC(O)CC(O)(C(F)(F)F)C(F)(F)F (stereo unspecified) |  | > 10 µM |  | > 10 µM |  | > 10 |  | > 10 |  | > 10 |  | > 10 | > 10 µM | > 10 | > 10 µM | > 10 µM |  |  |  | 
CC1=CC(=O)C(C(O)(C(F)(F)F)C(F)(F)F)C(C)(C)C1 (stereo unspecified) |  | > 10 µM |  | > 10 µM |  | > 10 |  | > 10 |  | > 10 |  | > 10 | > 10 µM | > 10 | > 10 µM | > 10 µM |  |  |  | 
O=C(OCc1ccc2c(Cl)cc(Cl)c(O)c2n1)N1CCN(C(=O)c2cc3cc(F)ccc3[nH]2)CC1 | 0.918 µM | > 100 µM | 1.94 µM | 18.6 µM | 0.905 | > 100 | 45.4 | > 100 | 1.31 µM | > 100 | 0.303 | > 100 | > 100 µM | > 100 | > 100 µM | > 100 µM | 62.7 µM | 3.23 | 2.85 µM | 3.6 µM
Cc1ncc([N+](=O)[O-])n1CCNS(=O)(=O)CCCn1ncnc1[N+](=O)[O-] |  | > 100 µM |  | > 100 µM |  | > 100 |  | > 100 |  | > 100 |  | > 100 | > 100 µM | > 100 | > 100 µM | > 100 µM |  |  |  | 
COc1ccc(Cc2cnc(NC(=O)c3ccc4c(c3)OCCO4)s2)cc1 | 0.0344 µM | 26 µM | 0.037 µM | > 41.1 µM | < 0.0123 | 15.6 | 1.72 | 88.5 | 0.0602 µM | > 100 | < 0.0125 |  | > 55.4 µM | > 78.4 | 44 µM | > 100 µM | 0.0418 µM | 0.0545 | 0.0192 µM | 0.0321 µM
O=C(O)C12CC3(C(=O)O)CC(C(=O)O)(CC(C(=O)O)(C1)C3=O)C2=O |  | > 100 µM |  | > 100 µM |  | > 100 |  | > 100 |  | > 100 |  | > 100 | > 100 µM | > 100 | > 100 µM | > 100 µM |  |  |  | 
Nc1ccc2nc3n(c2c1)C(=O)c1ccccc1-3 |  | > 100 µM |  | > 100 µM |  | > 100 |  | > 100 |  |  |  | > 100 | > 100 µM | > 100 | > 100 µM | > 100 µM |  |  |  | 
Cn1cc(-c2ccc(-c3cncc(Cl)c3N3CCC4(CCNC4=O)CC3)cc2)cn1 | 69.1 µM | > 100 µM | 50.3 µM | > 100 µM |  |  | 65.5 | > 100 | 39.6 µM | > 100 | 26.4 | > 100 | > 100 µM | > 100 | > 100 µM | > 100 µM | 16.9 µM | 24.7 | 34.8 µM | 41.6 µM
